Strand notation (5' to 3'): a small letter for the sugar, then the base; units joined by * are phosphorothioate-linked, units joined directly phosphodiester-linked; [ ] holds rarer units or linkages, { } end groups; capitals alone tell only the bases. e = 2'-O-(2-methoxyethyl) (MOE); k = constrained ethyl (cEt); [5mC] = 5-methylcytosine; d = 2'-deoxy (DNA); m = 2'-O-methyl
Tested on: Yap1 mRNA
Experiment: Antisense inhibition of human Yap1 in SNU-449 cells by modified oligonucleotides, single dose (Example 5, RTS36584)
Type: cell-based
Conditions: for YAP1 (% UTC): SNU-449 cells, 10,000 cells per well, RTS36584
Outline: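 Each modified oligonucleotide is applied by free uptake to SNU-449 cultures at 2,000 nM, and total RNA is harvested around 48 h later. Yap1 transcript, quantified with the RTS36584 set and corrected for RIBOGREEN RNA content, is given as % UTC. Asterisks mark sequences overlapping the amplicon.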

[1] = Table 39, free uptake, 2,000 nM oligonucleotide, approx. 48 hours, normalized to RIBOGREEN, Yap1 mRNA relative to untreated control
[2] = Table 49, Yap1 mRNA level relative to untreated control, modified oligonucleotides targeting SEQ ID NO.: 1 and 2
[3] = Table 51, Yap1 mRNA remaining as percent of untreated control (UT), SNU-449 cells, single dose
[4] = Table 48, Yap1 mRNA level relative to untreated control, modified oligonucleotides targeting SEQ ID NO.: 1 and 2
[5] = Table 42 (separate experiment), free uptake, 2,000 nM modified oligonucleotide, approximately 48 hours, normalized to RIBOGREEN, Yap1 mRNA relative to untreated control cells

In the case of “1198424 (k[5mC]*dT*d[5mC]*dT*dT*dA*dT*dA*dT*dG*dG*kT*eT*kT*eT*kG; antisense) [Compound 1198424]”, the “YAP1 (% UTC)” value [1] was 15 % UTC.

For “1198613 (antisense kA*kA*kA*dG*dT*dG*dT*dA*dT*dG*dT*d[5mC]*kA*kG*kA*eA) [Compound 1198613]”, the “YAP1 (% UT)” value (Table 50, Yap1 mRNA remaining as percent of untreated control (UT), SNU-449 cells, single dose) was 3 % UT.

For “1198367 (kG*kA*k[5mC]*dT*dA*dA*dG*dT*dA*dA*dG*dG*kT*eT*kT*e[5mC]; antisense) [Compound 1198367]”, the “YAP1 (% UT)” value [2] was 58 % UT.

For “1200797 (kA*kT*kT*dA*dG*mA*dG*dT*dA*dT*dG*dT*dG*kG*k[5mC]*kA; antisense) [Compound 1200797]”, the “YAP1 (% UT)” value [3] was 11 % UT.

“1198831 (k[5mC]*kA*d[5mC]*dT*dT*dT*dT*dA*d[5mC]*dA*dT*kT*eA*kG*eG*kA; antisense) [Compound 1198831]” was tested, and the “YAP1 (% UT)” value (Table 46, Yap1 mRNA as percent of untreated control, SNU-449 cells, single dose) was 12 % UT.

For “1198291 (kA*kT*kG*dG*dA*dA*dA*dT*dT*dG*dT*d[5mC]*kT*e[5mC]*kA*eT; antisense) [Compound 1198291]”, the “YAP1 (% UT)” value [4] was 58 % UT.

With “1198673 (antisense kG*kA*dT*dT*dT*dA*dG*dG*dA*dT*dG*d[5mC]*kA*eT*kG*eG) [Compound 1198673]” the “YAP1 (% UTC)” value (Table 41, free uptake, 2,000 nM modified oligonucleotide, approximately 48 hours, normalized to RIBOGREEN, Yap1 mRNA relative to untreated control cells) was 10 % UTC.

“1200791 (kA*kT*kG*dG*dA*mA*dA*dT*dT*dG*dT*d[5mC]*dT*k[5mC]*kA*kT; antisense) [Compound 1200791]” was tested, and the “YAP1 (% UT)” value (Table 52, Yap1 mRNA, modified oligonucleotides targeting SEQ ID NO: 1 and 2) was 46 % UT.

“1198203 (kG*kG*dA*dA*dA*dT*dT*dG*dT*d[5mC]*dT*e[5mC]*eA*eT*kG*k[5mC]; antisense) [Compound 1198203]” was tested, and the “YAP1 (% UTC)” value [5] was 19 % UTC.

“1198251 (kT*k[5mC]*dT*dT*dA*dT*dA*dT*dG*dG*dT*eT*eT*eT*kG*kT; antisense) [Compound 1198251]” was tested, and the “YAP1 (% UTC)” value (Table 43 experiment, free uptake, 2,000 nM, approximately 48 hours, Yap1 mRNA normalized to RIBOGREEN, relative to untreated control cells) was 83 % UTC.

With “1198328 (kA*kT*kT*dT*dA*dG*dG*dA*dT*dG*d[5mC]*dA*kT*eG*kG*eT; antisense) [Compound 1198328]” the “YAP1 (% UT)” value [4] was 42 % UT.

In the case of “1198205 (kA*kT*dG*dG*dA*dA*dA*dT*dT*dG*dT*e[5mC]*eT*e[5mC]*kA*kT; antisense) [Compound 1198205]”, the “YAP1 (% UTC)” value [5] was 64 % UTC.

With “1198309 (k[5mC]*kT*kT*dT*dT*dA*d[5mC]*dA*dT*dT*dA*dG*kG*eA*kA*e[5mC]; antisense) [Compound 1198309]” the “YAP1 (% UT)” value [4] was 85 % UT.

In the case of “1198449 (kA*dA*dG*dT*dA*dA*dG*dG*dT*dT*dT*k[5mC]*e[5mC]*k[5mC]*eA*kG; antisense) [Compound 1198449]”, the “YAP1 (% UTC)” value [1] was 37 % UTC.

For “1198379 (kA*dG*dT*dA*dT*dG*dT*dG*dG*d[5mC]*dA*kA*eT*kA*eA*kT) [Compound 1198379]”, the “YAP1 (% UTC)” value [1] was 45 % UTC.

In the case of “1198354 (kA*kA*kG*dT*dG*dT*dA*dT*dG*dT*d[5mC]*dA*kG*eA*kA*eG; antisense) [Compound 1198354]”, the “YAP1 (% UT)” value [2] was 6 % UT.

With “1198557 (antisense kA*kT*kA*dT*dT*dA*dG*dA*dG*dT*dA*dT*kG*kT*kG*eG) [Compound 1198557]” the “YAP1 (% UT)” value [2] was 16 % UT.

With “1198235 (kT*kG*d[5mC]*dT*dT*dT*dG*dG*dA*dA*dG*eA*eT*e[5mC]*kT*kG) [Compound 1198235]” the “YAP1 (% UTC)” value [5] was 49 % UTC.

In the case of “1198361 (kT*kA*kA*dG*dG*dT*dT*dT*d[5mC]*d[5mC]*d[5mC]*dA*kG*eA*kT*eT; antisense) [Compound 1198361]”, the “YAP1 (% UT)” value [2] was 39 % UT.

For “1197299 (kA*kG*kG*dA*mU*dG*d[5mC]*dA*dT*dG*dG*dT*dT*kT*kT*kT; antisense) [Compound 1197299]”, the “YAP1 (% UT)” value [3] was 41 % UT.

With “1198329 (kG*kA*kT*dT*dT*dA*dG*dG*dA*dT*dG*d[5mC]*kA*eT*kG*eG; antisense) [Compound 1198329]” the “YAP1 (% UT)” value [4] was 36 % UT.

With “1198892 (kA*kA*dT*dT*dG*dT*d[5mC]*dT*d[5mC]*dA*dT*kG*d[5mC]*k[5mC]*dT*kT) [Compound 1198892]” the “YAP1 (% UTC)” value (Table 44 experiment, free uptake, 2,000 nM, approximately 48 hours, Yap1 mRNA normalized to RIBOGREEN, relative to untreated control cells) was 24 % UTC.

“1095566 (antisense CTGAGGTATAACTGGG; chemistry not fully specified) [Compound 1095566]” was tested, and the “YAP1 (% UT)” value [2] was 47 % UT.

Source: patent US11214803B2, “Modulators of YAP1 expression” (Ionis Pharmaceuticals, Inc., priority 2019, dated 2022)
